Laboratory results: US12686652B2, “Methods of increasing irrigation water and fertilizer delivery to soil using formic acid and formate salts, making a formate salt from carbon dioxide, and generating a carbon credit” (Deerpoint Group, Inc., priority 2023, dated 2026)
Where “and” joins values, the source holds several entries; their conditions need not be identical. Identical values can stand only once. Like-named read-outs stand apart in the source and are kept apart here.

Tests used:
[1] = for Drainage Rate: Time (50 g), percentage relative to irrigation water / Drainage Rate: liquid eluted at 60 mins, percentage relative to irrigation water / Drainage Rate: liquid eluted at 120 mins, percentage relative to irrigation water / Liquid Eluted after 60 min / Liquid Eluted after 120 min / Time (50 g of liquid, in min) / More liquid eluted by mass than the irrigation water: first farm soil; for Liquid Eluted after 60 min / Liquid Eluted after 120 min / Time (50 g of liquid, in min): Ca formate 22 ppm by moles, HCO2H 0.33% by weight, average of two columns
Excerpt: The objective was to investigate the behavior of different irrigation water treatments and determine the relative amounts of water that passed through the soil columns. The column retention times reflect the rate at which the liquid passes through the soil. Understanding these retention times provides insights about the transport and movement of irrigation water (and any fertilizers dissolved therein) through the soil, which has implications for the volume of water passing into and through the root zone, nutrient availability to crops, leaching of contaminants, and overall soil health.
The data in Table 1 is for the average of the two soil samples.

[2] = first farm soil, duplicate columns A and B
[3] = first pass
Excerpt: The irrigation water at the second farm was from a different source than the first farm.

[4] = ICP and flow injection (FIA) analyses of solutions passed through soil columns, second farm; settings: single soil sample
Excerpt: FIA was used to determine the content of the listed anion (e.g., NO3, Cl, PO4, etc.). Results are presented from a single soil sample.

[5] = 1st pass, Alternating = formic acid pass
[6] = 2nd pass, Alternating = calcium formate pass
[7] = 3rd pass, Alternating = formic acid pass
[8] = 4th pass, Alternating = calcium formate pass
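Throughout, for Mn in solution passed through soil column (ICP): eluate from PVC columns holding 100 g of dry ground farm soil, analysed by ICP-OES for element content after the solution had drained through, irrigation water measured as received for reference.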

In the case of O=CO [HCO2H, formic acid], the “Drainage Rate: Time (50 g), percentage relative to irrigation water” value ([1]; 1st pass) is reported as 50.0%, the “Drainage Rate: liquid eluted at 60 mins, percentage relative to irrigation water” value ([1]; 1st pass) is reported as 214% and the “Drainage Rate: liquid eluted at 120 mins, percentage relative to irrigation water” value ([1]; 1st pass) is reported as 168%. For the same compound, the “Liquid Eluted after 60 min” value ([1]; 1st pass) was 34.1 g, the “Liquid Eluted after 120 min” value ([1]; 1st pass) was 59.7 g and the “Time (50 g of liquid, in min)” value ([1]; 1st pass) was 90 min. The “Drainage Rate: Time (50 g), percentage relative to irrigation water” value ([1]; 2nd pass) was 50.0%, the “Drainage Rate: liquid eluted at 60 mins, percentage relative to irrigation water” value ([1]; 2nd pass) was 206% and the “Drainage Rate: liquid eluted at 120 mins, percentage relative to irrigation water” value ([1]; 2nd pass) was 198%. For the same compound, the “Liquid Eluted after 60 min” value ([1]; 2nd pass) was 43.9 g, the “Liquid Eluted after 120 min” value ([1]; 2nd pass) was 78.9 g and the “Time (50 g of liquid, in min)” value ([1]; 2nd pass) was 90 min. The “Drainage Rate: Time (50 g), percentage relative to irrigation water” value ([1]; 3rd pass) was 50.0%, the “Drainage Rate: liquid eluted at 60 mins, percentage relative to irrigation water” value ([1]; 3rd pass) was 189% and the “Drainage Rate: liquid eluted at 120 mins, percentage relative to irrigation water” value ([1]; 3rd pass) was 189%. For the same compound, the “Liquid Eluted after 60 min” value ([1]; 3rd pass) was 36.0 g, the “Liquid Eluted after 120 min” value ([1]; 3rd pass) was 68.3 g and the “Time (50 g of liquid, in min)” value ([1]; 3rd pass) was 90 min. The “Drainage Rate: Time (50 g), percentage relative to irrigation water” value ([1]; 4th pass) was 50.0%, the “Drainage Rate: liquid eluted at 60 mins, percentage relative to irrigation water” value ([1]; 4th pass) was 207% and the “Drainage Rate: liquid eluted at 120 mins, percentage relative to irrigation water” value ([1]; 4th pass) was 183%. For the same compound, the “Liquid Eluted after 60 min” value ([1]; 4th pass) was 40.5 g, the “Liquid Eluted after 120 min” value ([1]; 4th pass) was 69.5 g and the “Time (50 g of liquid, in min)” value ([1]; 4th pass) was 90 min. The “Liquid retained by the soil samples on average” value ([1]; first pass, dry soil, first farm, 100 ml added (FIG. 1)) was “about 36 ml”, the “More liquid eluted by mass than the irrigation water” value (“More liquid eluted” below) ([1]; first pass) was 170-210% and the “More liquid eluted” value ([1]; fourth pass) was 180-210%. For the same compound, the “More liquid eluted” value ([1]; second pass) was 200-210%, the “More liquid eluted” value ([1]; third pass) was ~ 190% and the “B in solution passed through soil column (ICP)” value ([2]; 1st pass) was 4.34 ppm and 4.25 ppm. For the same compound, the “Ca in solution passed through soil column (ICP)” value (shortened to “Ca”) ([2]; 1st pass) was 268.8 ppm and 261.2 ppm, the “K in solution passed through soil column (ICP)” value ([2]; 1st pass) was 19.52 ppm and 18.52 ppm and the “Mg in solution passed through soil column (ICP)” value (“Mg” below) ([2]; 1st pass) was 107.6 ppm and 103.1 ppm. The “Mn in solution passed through soil column (ICP)” value ([2]; 1st pass) was 4.40 ppm and 4.25 ppm, the “Na in solution passed through soil column (ICP)” value (from here on “Na … (ICP)”) ([2]; 1st pass) was 111.2 ppm and 109.8 ppm and the “P in solution passed through soil column (ICP)” value ([2]; 1st pass) was 1.06 ppm and 0.55 ppm. For the same compound, the “S in solution passed through soil column (ICP)” value ([2]; 1st pass) was 83.5 ppm and 74.5 ppm, the “Si in solution passed through soil column (ICP)” value (shortened to “Si”) ([2]; 1st pass) was 31.3 ppm and 30.9 ppm and the “B in solution passed through soil column (ICP)” value ([2]; 2nd pass) was 2.42 ppm and 2.41 ppm. The “Ca” value ([2]; 2nd pass) was 173.7 ppm and 205.0 ppm, the “K in solution passed through soil column (ICP)” value ([2]; 2nd pass) was 15.36 ppm and 17.82 ppm and the “Mg” value ([2]; 2nd pass) was 69.7 ppm and 79.2 ppm. For the same compound, the “Mn in solution passed through soil column (ICP)” value ([2]; 2nd pass) was 3.32 ppm and 3.98 ppm, the “Na … (ICP)” value ([2]; 2nd pass) was 53.9 ppm and 49.3 ppm and the “P in solution passed through soil column (ICP)” value ([2]; 2nd pass) was 1.01 ppm and 0.73 ppm. For the same compound, the “S in solution passed through soil column (ICP)” value ([2]; 2nd pass) was 22.8 ppm and 22.1 ppm, the “Si” value ([2]; 2nd pass) was 34.1 ppm and 40.9 ppm and the “B in solution passed through soil column (ICP)” value ([2]; 3rd pass) was 2.09 ppm and 1.82 ppm. For the same compound, the “Ca” value ([2]; 3rd pass) was 167.8 ppm and 176.4 ppm, the “K in solution passed through soil column (ICP)” value ([2]; 3rd pass) was 14.81 ppm and 16.46 ppm and the “Mg” value ([2]; 3rd pass) was 66.6 ppm and 67.2 ppm. For the same compound, the “Mn in solution passed through soil column (ICP)” value ([2]; 3rd pass) was 5.00 ppm and 5.23 ppm, the “Na … (ICP)” value ([2]; 3rd pass) was 36.5 ppm and 31.2 ppm and the “P in solution passed through soil column (ICP)” value ([2]; 3rd pass) was 1.09 ppm and 0.90 ppm. The “S in solution passed through soil column (ICP)” value ([2]; 3rd pass) was 13.4 ppm and 11.5 ppm, the “Si” value ([2]; 3rd pass) was 46.9 ppm and 49.9 ppm and the “B in solution passed through soil column (ICP)” value ([2]; 4th pass) was 0.79 ppm and 0.73 ppm. The “Ca” value ([2]; 4th pass) was 130.3 ppm and 140.7 ppm, the “K in solution passed through soil column (ICP)” value ([2]; 4th pass) was 13.34 ppm and 15.64 ppm and the “Mg” value ([2]; 4th pass) was 50.6 ppm and 52.5 ppm. For the same compound, the “Mn in solution passed through soil column (ICP)” value ([2]; 4th pass) was 4.46 ppm and 4.84 ppm, the “Na … (ICP)” value ([2]; 4th pass) was 16.6 ppm and 16.4 ppm and the “P in solution passed through soil column (ICP)” value ([2]; 4th pass) was 1.33 ppm and 1.63 ppm. For the same compound, the “S in solution passed through soil column (ICP)” value ([2]; 4th pass) was 3.7 ppm and 3.6 ppm, the “Si” value ([2]; 4th pass) was 34.1 ppm and 35.3 ppm and the “Liquid retained by the soil samples on average” value ([3]; dry soil, second farm (FIG. 3)) was 41 to 42 mL. For the same compound, the “Time of first appearance of liquid from the columns on average” value ([3]; dry soil, second farm (FIG. 3)) was < 20 min, the “Amount of liquid passed through the columns compared with irrigation water at the same lengths of time” value ([3]; second farm, from 20-30 minutes up to 240 minutes) was “more than three times as much” and the “B in solution passed through soil column (ICP)” value [4, 5] was 0.6 ppm. For the same compound, the “Ca” value [4, 5] was 260.7 ppm, the “Cl^− in solution passed through soil column (FIA)” value (“Cl^−” below) [4, 5] was 304.0 ppm and the “K in solution passed through soil column (ICP)” value [4, 5] was 9.7 ppm. For the same compound, the “Mg” value [4, 5] was 69.3 ppm, the “NO3^− in solution passed through soil column (FIA)” value (“NO3^−” below) [4, 5] was 0.0 ppm and the “Na … (ICP)” value [4, 5] was 345.5 ppm. The “P in solution passed through soil column (ICP)” value [4, 5] was 0.7 ppm, the “S in solution passed through soil column (ICP)” value [4, 5] was 43.8 ppm and the “Si” value [4, 5] was 31.8 ppm. For the same compound, the “B in solution passed through soil column (ICP)” value [4, 6] was 0.5 ppm, the “Ca” value [4, 6] was 312.7 ppm and the “Cl^−” value [4, 6] was 102.8 ppm. The “K in solution passed through soil column (ICP)” value [4, 6] was 9.0 ppm, the “Mg” value [4, 6] was 81.3 ppm and the “NO3^−” value [4, 6] was 0.0 ppm. The “Na … (ICP)” value [4, 6] was 175.2 ppm, the “P in solution passed through soil column (ICP)” value [4, 6] was 1.9 ppm and the “S in solution passed through soil column (ICP)” value [4, 6] was 11.4 ppm. For the same compound, the “Si” value [4, 6] was 43.1 ppm, the “B in solution passed through soil column (ICP)” value [4, 7] was 0.4 ppm and the “Ca” value [4, 7] was 337.4 ppm. The “Cl^−” value [4, 7] was 91.7 ppm, the “K in solution passed through soil column (ICP)” value [4, 7] was 9.9 ppm and the “Mg” value [4, 7] was 84.0 ppm. For the same compound, the “NO3^−” value [4, 7] was 0.0 ppm, the “Na … (ICP)” value [4, 7] was 79.9 ppm and the “P in solution passed through soil column (ICP)” value [4, 7] was 5.8 ppm. The “S in solution passed through soil column (ICP)” value [4, 7] was 8.0 ppm, the “Si” value [4, 7] was 51.9 ppm and the “B in solution passed through soil column (ICP)” value [4, 8] was 0.3 ppm. The “Ca” value [4, 8] was 286.6 ppm, the “Cl^−” value [4, 8] was 92.9 ppm and the “K in solution passed through soil column (ICP)” value [4, 8] was 10.6 ppm. For the same compound, the “Mg” value [4, 8] was 65.5 ppm, the “NO3^−” value [4, 8] was 0.0 ppm and the “Na … (ICP)” value [4, 8] was 66.1 ppm. The “P in solution passed through soil column (ICP)” value [4, 8] was 6.4 ppm, the “S in solution passed through soil column (ICP)” value [4, 8] was 8.3 ppm and the “Si” value [4, 8] was 65.2 ppm.
